# Patent US5384119A, “Method of preventing neutrophil mediated connective tissue damage” (Merrell Dow Pharmaceuticals Inc., priority 1993, dated 1995)
# Read-outs that look alike come from different tables or passages of the source.
# Assays:
# elastase = biological target: T1, elastase (Homo sapiens, UniProt P08246); assay: Elastase cleavage of synthetic substrate N-methoxysuccinyl-Ala-Ala-Pro-Val-p-nitroanalide; assay type: biochemical; settings: 2 μg of elastase, FIG. 1, read-out: IC50 for the inhibition of elastase
# T1 sequence (P08246 30-247 limits assumed): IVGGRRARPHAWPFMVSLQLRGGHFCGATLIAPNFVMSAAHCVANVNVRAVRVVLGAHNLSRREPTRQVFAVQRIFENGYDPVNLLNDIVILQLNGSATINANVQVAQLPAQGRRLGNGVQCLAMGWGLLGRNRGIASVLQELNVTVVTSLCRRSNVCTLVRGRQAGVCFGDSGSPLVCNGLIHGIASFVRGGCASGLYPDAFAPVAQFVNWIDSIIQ
# Experimental: (§1) Elastase activity is assayed using the specific substrate, N-methoxysuccinyl-Ala-Ala-Pro-Val-p-nitroanalide, and cathepsin G activity was measured using N-succinyl-Ala-Pro-Phe-p-nitroanalide. The assay buffer, 0.1M HEPES with 0.5M NaCl and 0.1% Brij-35, is used to dilute the elastase substrate to a final concentration of 0.2 mM and the cathepsin G substrate to 1 mM. The appropriate substrate in 2 ml of assay buffer is incubated at 37° C. in a heated spectrophotometer cell and the reaction is started by the addition of enzyme. In experiments where inhibitors were tested, the inhibitors were incubated with the enzyme for 5 min before the addition of substrate. […] was continuously monitored at 410 nm using a diode array spectrophotometer. Kinetic constants were determined using the kinetics software of the spectrophotometer.
# (§2) The ability of several sulfated polymers to inhibit elastase and cathepsin G degradation of their respective substrates was examined. MDL-101,028, a compound falling within the scope of the claimed invention, where the value of n is 6, and 4,4'-Diisothiocyanatostilbene-2,2'-disulfonic acid, internally identified as MDL-101,114 (DIDS) inhibited both elastase and cathepsin G in a dose-dependent manner.
# cathepsin G [1] = biological target: T2, cathepsin G (Homo sapiens, UniProt P08311); assay: Cathepsin G cleavage of synthetic substrate N-succinyl-Ala-Pro-Phe-p-nitroanalide; assay type: biochemical; settings: 2 micrograms of cathepsin G, FIG. 2, read-out: IC50 for the inhibition of cathepsin G
# T2 construct: Both purified human neutrophil elastase and cathepsin G degrade CPG; from tissue; host or cells: human neutrophils
# T2 sequence (P08311 21-244 limits assumed): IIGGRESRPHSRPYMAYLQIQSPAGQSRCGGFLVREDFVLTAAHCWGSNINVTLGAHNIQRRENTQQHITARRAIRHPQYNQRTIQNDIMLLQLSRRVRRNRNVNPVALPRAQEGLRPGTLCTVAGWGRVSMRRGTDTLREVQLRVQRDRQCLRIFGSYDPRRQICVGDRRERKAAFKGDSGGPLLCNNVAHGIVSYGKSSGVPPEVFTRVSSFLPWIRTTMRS
# Experimental: as §1, §2
# [2] = biological target: T3, purified human neutrophil elastase (Homo sapiens, UniProt P08246); assay: Elastase mediated degradation of 35S-labeled cartilage matrix proteoglycan (CPG); assay type: biochemical; settings: cartilage discs, 4 hours at 37° C., FIG. 3
# T3 construct: Both purified human neutrophil elastase and cathepsin G degrade CPG; from tissue; host or cells: human neutrophils
# T3 sequence (P08246 30-247 limits assumed): T1 sequence (P08246 30-247 limits assumed)
# Experimental: (§3) Fresh bovine nasal septa were obtained from a local abattoir and 4 mm cartilage cylinders were prepared using a No. 2 cork borer. The cylinders were sliced into 1 mm discs. The top and bottom discs were discarded and the remaining cartilage discs were pooled, washed three times in HBSS and resuspended in Dulbecco's Modified Eagles Medium (DMEM) with antibiotics and supplements. The sulfated sugars that constitute the glycosaminoglycan side chains of cartilage proteoglycan were radiolabeled by the addition of 10 μCi/ml of Na2^35 SO4 followed by incubation overnight at 37° C. with gentle rocking. […]
# (§4) The ability of neutrophil proteases to degrade connective tissue matrix was measured by incubating ^35 S-radiolabeled cartilage discs with neutrophil lysate, purified elastase or cathepsin G in serumless media for 4 hours at 37° C. and collecting the supernatants and counting the radiolabeled material in the supernatants and discs. The radioactivity remaining in the cartilage discs after removal of the supernatant was assayed by completely digesting the discs in 6M HCl at 100° C. for 1 hour, removing the HCl by vacuum evaporation and resuspending the dried material in 0.5 ml HBSS. Supernatants and processed discs were counted in a Beckman LS 3801 scintillation counter. The data were expressed as the percent at ^35 S label released into the supernatant. […]
# cathepsin G [3] = biological target: T2, cathepsin G; assay: Cathepsin G mediated degradation of 35S-labeled cartilage matrix proteoglycan (CPG); assay type: biochemical; settings: cartilage discs, 4 hours at 37° C., FIG. 4
# Experimental: as §3, §4
# Human neutrophil lysate = Human neutrophil lysate mediated degradation of CPG; assay type: biochemical; settings: lysate 1:100, 4 hour at 37° C., FIG. 5
# Experimental: Human neutrophil granule lysates were prepared by resuspending 2.5×10^8 in 4 ml of […] sucrose and sonicating for 30 seconds using a microtip probe. […] The neutrophil lysate was centrifuged at 1000×g for 10 min. at 4° C., the supernatant was collected and centrifuged at 30,000×g for 30 min. at 4° C. and the pellet containing neutrophil granules was resuspended in 2 ml of 0.05M sodium acetate buffer, pH 5.5, containing 1M NaCl and 0.1% Brij-35 and kept on ice for 30 min. with several brief sonications of approximately 30 seconds during the incubation period. […] The granule lysate was centrifuged at 30,000×g for 30 min. at 4° C. and the supernatant was collected, tested for elastase and cathepsin G content using synthetic substrates as described above, aliquoted and stored at […] until used.
# Fresh bovine nasal septa were obtained from a local abattoir and 4 mm cartilage cylinders were prepared using a No. 2 cork borer. The cylinders were sliced into 1 mm discs. The top and bottom discs were discarded and the remaining cartilage discs were pooled, washed three times in HBSS and resuspended in Dulbecco's Modified Eagles Medium (DMEM) with antibiotics and supplements. […]
# as §4
# Human neutrophils [4] = assay: Neutrophil viability (trypan blue exclusion, lactic dehydrogenase release); assay type: cell-based
# Experimental: (§5) Radiolabeled cartilage discs were placed into the wells of 96-well microtiter plates and overlayed with human neutrophils suspended in DMEM containing 10% FCS. The neutrophils were stimulated by the addition of 1 mg/ml of opsonized zymosan and incubated for 4 hours at 37° C. with 5% CO2. Connective tissue matrix degradation was quantitated by the amount of radiolabel released. In experiments using protease inhibitors, the inhibitors were added immediately after the neutrophils. The viability of the neutrophils incubated with the protease inhibitors was determined by assaying the supernatants for lactic dehydrogenase (LDH) and by neutrophil exclusion of trypan blue. In addition, the effect of protease inhibitors on primary granule enzyme secretion was monitored by measuring the release of myeloperoxidase.
# (§6) The percentage of neutrophils stimulated with zymosan in media for 4 hours that excluded trypan blue was 85% compared to 77%-87% for neutrophils incubated with MDL-101,028 at doses of 4, 10, and 25 μM, respectively. This correlated with LDH release which was 9% for stimulated neutrophils treated with media, compared to 7-11% for neutrophils incubated with MDL-101,028 at concentrations of 4-25 μM.
# Human neutrophils [5] = assay: Primary granule enzyme secretion (myeloperoxidase release) from neutrophils; assay type: cell-based; settings: stimulated neutrophils
# Experimental: as §5, §6
# [6] = system: human neutrophil elastase; assay: Elastase induced pulmonary hemorrhage in rats; assay type: in vivo, Male Sprague Dawley rats; settings: rat; for Inhibition of lung hemorrhage (hemoglobin in lavage fluid): 100 μg elastase, FIG. 7; for Inhibition of lung hemorrhage: intratracheal, FIG. 8
# Experimental: Male Sprague Dawley rats were anesthetized with chloral hydrate (300 mg/kg) and either saline or human neutrophil elastase was administered intratracheally. Briefly, rats were placed on a surgical board, ventral side up, and their mouths held open using a rubber band placed over their incisors. The tongue was held to the side and 100 micro liters of elastase solution (1 mg/ml) was administered into the trachea with the aid of a bright light source and a 3 inch, 22 gauge blunt-end needle. One hour after elastase administration, the rats were sacrificed using CO2 and the trachea was surgically exposed and cannulated. The lungs were lavaged with 10 ml of saline and the hemoglobin content was-determined using the cyanmethemoglobin assay. In experiments where inhibitors were tested, the compounds were given intratracheally in 100 μl of saline at various times before elastase administration.
# Intratracheal instillation of human leukocyte elastase produced acute lung injury as assessed by hemorrhage (FIG. 7). The hemorrhage was quantified by measuring the hemoglobin content of the pulmonary lavage fluid. […] When MDL-101,028 was administered intratracheally immediately before elastase (within 30 seconds) at doses of 280 μg, 700 μg, or 2800 μg, lung hemorrhage was inhibited by 48%, 90%, and 90% respectively (FIG. 7).
# MDL-101,028 was administered to rats at various time intervals before instillation of elastase to determine the duration of action.
SMILES,IC50 (elastase),IC50 (cathepsin G [1]),"IC50 ([2]; read-out: IC50, elastase mediated cartilage degradation)","IC50 (cathepsin G [3]; read-out: IC50, cathepsin G mediated cartilage degradation)","IC50 ([2]; read-out: IC50, elastase mediated CPG degradation)","IC50 (cathepsin G [3]; read-out: IC50, cathepsin G mediated CPG degradation)",Inhibition of CPG degradation by neutrophil lysate (Human neutrophil lysate; 4 μmolar),Inhibition of CPG degradation by neutrophil lysate (Human neutrophil lysate; 10 μmolar),Inhibition of CPG degradation by neutrophil lysate (Human neutrophil lysate; 25 μmolar),"LDH release (Human neutrophils [4]; concentrations of 4-25 μM, stimulated neutrophils (media control 9%), 240 min)","Percentage of neutrophils that excluded trypan blue (Human neutrophils [4]; doses of 4, 10, and 25 μM, zymosan stimulated, 4 hours (media control 85%))",Viability of the neutrophils (Human neutrophils [4]; trypan blue exclusion and lactic dehydrogenase release),Myeloperoxidase release from neutrophils (Human neutrophils [5]),Inhibition of lung hemorrhage (hemoglobin in lavage fluid) ([6]; 280 μg intratracheally immediately before elastase (within 30 seconds)),Inhibition of lung hemorrhage (hemoglobin in lavage fluid) ([6]; 700 μg intratracheally immediately before elastase (within 30 seconds)),Inhibition of lung hemorrhage (hemoglobin in lavage fluid) ([6]; 2800 μg intratracheally immediately before elastase (within 30 seconds)),Inhibition of lung hemorrhage ([6]; administered 1 hour before elastase),Inhibition of lung hemorrhage ([6]; administered 2 hours before elastase),Inhibition of lung hemorrhage ([6]; administered 4 hours before elastase),Duration of action ([6]; intratracheal route)
"O=S(=O)(O)c1cc(N=C=S)ccc1C=Cc1ccc(N=C=S)cc1S(=O)(=O)O [DIDS, 4,4'-Diisothiocyanatostilbene-2,2'-disulfonic acid, reference compound]",1.1 µM,1.4 µM,38 µM,50 µM,,,,,,,,,,,,,,,,
"Cc1ccc(NC(=O)Nc2ccc(-c3ccc(NC(=O)Nc4ccc(-c5ccc(NC(=O)Nc6ccc(-c7ccc(NC(=O)Nc8ccc(-c9ccc(NC(=O)Nc%10ccc(-c%11ccc(NC(=O)Nc%12ccc(-c%13ccc(NC(=O)Nc%14ccc(C)cc%14)cc%13S(=O)(=O)O)c(S(=O)(=O)O)c%12)cc%11S(=O)(=O)O)c(S(=O)(=O)O)c%10)cc9S(=O)(=O)O)c(S(=O)(=O)O)c8)cc7S(=O)(=O)O)c(S(=O)(=O)O)c6)cc5S(=O)(=O)O)c(S(=O)(=O)O)c4)cc3S(=O)(=O)O)c(S(=O)(=O)O)c2)cc1 [MDL-101,028]",0.04 µM,0.08 µM,,,~8 µM,~9 µM,54%,70%,79%,7-11%,77%-87%,not diminished,not inhibited,48%,90%,90%,61%,63%,20%,greater than two hours and less than four hours
